Results: patent US12655116B2, “Substituted isophthalic acid diamides” (Bayer Aktiengesellschaft, priority 2020, dated 2026)

What was measured:
[1] = test system: ABUTH; experiment: Pre-emergence herbicidal action against ABUTH; format: in vivo, Abutilon theophrasti
How it was run: (§1)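 Greenhouse pots of sandy loam held seeds covered with soil, onto which the compound was applied before emergence. An aqueous suspension or emulsion of WP or EC was used at 600 to 800 l/ha with 0.2% wetting agent. Percent damage was judged visually at 3 weeks.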

[2] = test system: ALOMY; experiment: Pre-emergence herbicidal action against ALOMY; format: in vivo, Alopecurus myosuroides; details: pre-emergence
How it was run: as §1

[3] = test system: AMARE; experiment: Pre-emergence herbicidal action against AMARE; format: in vivo, Amaranthus retroflexus
How it was run: as §1

[4] = test system: AVEFA; experiment: Pre-emergence herbicidal action against AVEFA; format: in vivo, Avena fatua; details: pre-emergence
How it was run: as §1

[5] = test system: LOLRI; experiment: Pre-emergence herbicidal action against LOLRI; format: in vivo, Lolium rigidum; details: 80 g/ha
How it was run: as §1

[6] = test system: MATIN; experiment: Pre-emergence herbicidal action against MATIN; format: in vivo, Matricaria inodora
How it was run: as §1

[7] = test system: PHBPU; experiment: Pre-emergence herbicidal action against PHBPU; format: in vivo, Pharbitis purpurea
How it was run: as §1

[8] = test system: POLCO; experiment: Pre-emergence herbicidal action against POLCO; format: in vivo, Polygonum convolvulus; details: dosage 80 g/ha
How it was run: as §1

[9] = test system: SETVI; experiment: Pre-emergence herbicidal action against SETVI; format: in vivo, Setaria viridis
How it was run: as §1

[10] = test system: VERPE; experiment: Pre-emergence herbicidal action against VERPE; format: in vivo, Veronica persica
How it was run: as §1

[11] = test system: VIOTR; experiment: Pre-emergence herbicidal action against VIOTR; format: in vivo, Viola tricolor
How it was run: as §1

[12] = test system: DIGSA; experiment: Pre-emergence herbicidal action against DIGSA; format: in vivo, Digitaria sanguinalis
How it was run: as §1

[13] = test system: ABUTH; experiment: Post-emergence herbicidal action against ABUTH; format: in vivo, Abutilon theophrasti; details: visual assessment about 3 weeks after treatment vs untreated controls
How it was run: (§2)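 A WP or EC formulation diluted in water with 0.2% wetting agent was sprayed at 600 to 800 l/ha onto one-leaf-stage plants grown in sandy loam. About 3 weeks later, action was rated visually in percent, 100% being dead plants.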

[14] = test system: ALOMY; experiment: Post-emergence herbicidal action against ALOMY; format: in vivo, Alopecurus myosuroides; details: dosage 20 g/ha, visual assessment about 3 weeks after treatment vs untreated controls
How it was run: as §2

[15] = test system: ECHCG; experiment: Post-emergence herbicidal action against ECHCG; format: in vivo, Echinochloa crus-galli; details: dosage 20 g/ha
How it was run: as §2

[16] = test system: MATIN; experiment: Post-emergence herbicidal action against MATIN; format: in vivo, Matricaria inodora
How it was run: as §2

[17] = test system: SETVI; experiment: Post-emergence herbicidal action against SETVI; format: in vivo, Setaria viridis; details: dosage 20 g/ha
How it was run: as §2

[18] = test system: VERPE; experiment: Post-emergence herbicidal action against VERPE; format: in vivo, Veronica persica; details: 20 g/ha
How it was run: as §2

[19] = test system: DIGSA; experiment: Post-emergence herbicidal action against DIGSA; format: in vivo, Digitaria sanguinalis
How it was run: as §2

[20] = test system: ECHCG; experiment: Pre-emergence herbicidal action against ECHCG; format: in vivo, Echinochloa crus-galli; details: 80 g/ha
How it was run: as §1

[21] = test system: AMARE; experiment: Post-emergence herbicidal action against AMARE; format: in vivo, Amaranthus retroflexus; details: 20 g/ha, visual assessment about 3 weeks after treatment, 100% = plants have died, 0% = like control plants
How it was run: as §2

[22] = test system: PHBPU; experiment: Post-emergence herbicidal action against PHBPU; format: in vivo, Pharbitis purpurea
How it was run: as §2

[23] = Tripleurospermum inodorum, 504 h, dosage 20 g/ha
[24] = 80 g/ha, scored visually after 3 weeks vs untreated controls (100% = plants have died, 0% = like control plants)

SMILES: CCNC(=O)c1c(I)ccc(C(=O)Nc2nnnn2CC)c1Cl [Example 2-196]
- pest or weed control at 80 g/ha ([1]; Abutilon theophrasti, 504 h, 80 g/ha, scored visually after 3 weeks vs untreated controls (100% = plants have died, 0% = like control plants)): 100%
- pest or weed control at 20 g/ha ([1]; Abutilon theophrasti, 504 h, dosage 20 g/ha, scored visually after 3 weeks vs untreated controls, 100% = plants have died, 0% = like control plants, read-out: Pre-emergence action against ABUTH (herbicidal activity in percent)): 100%
- pest or weed control at 80 g/ha ([2]; Alopecurus myosuroides, 504 h, 80 g/ha, scored visually after 3 weeks vs untreated controls (100% = plants have died, 0% = like control plants)): 100%
- pest or weed control at 20 g/ha ([2]; Alopecurus myosuroides, 504 h, 20 g/ha, scored visually after 3 weeks, 100% = plants have died, 0% = like control plants): 90%
- pest or weed control at 20 g/ha ([3]; Amaranthus retroflexus, 504 h, 20 g/ha, scored visually after 3 weeks vs untreated controls, 100% = plants have died, 0% = like control plants): 100%
- pest or weed control at 80 g/ha ([3]; Amaranthus retroflexus, 504 h, 80 g/ha, scored visually after 3 weeks vs untreated controls, 100% = plants have died, 0% = like control plants): 100%
- pest or weed control at 80 g/ha ([4]; Avena fatua, 504 h, 80 g/ha): 100%
- pest or weed control at 20 g/ha ([4]; Avena fatua, 504 h, 20 g/ha, scored visually after 3 weeks, 100% = plants have died, 0% = like control plants): 80%
- pest or weed control at 80 g/ha ([5]; Lolium rigidum, 504 h): 100%
- pest or weed control at 20 g/ha [6, 23]: 100%
- pest or weed control at 80 g/ha ([6]; Tripleurospermum inodorum, 504 h, dosage 80 g/ha): 100%
- pest or weed control at 20 g/ha ([7]; Ipomoea purpurea, 504 h, dosage 20 g/ha): 80%
- pest or weed control at 80 g/ha ([7]; Ipomoea purpurea, 504 h, dosage 80 g/ha): 90%
- pest or weed control at 80 g/ha ([8]; Fallopia convolvulus, 504 h): 90%
- pest or weed control at 20 g/ha ([9]; Setaria viridis, 504 h, dosage 20 g/ha): 90%
- pest or weed control at 80 g/ha ([9]; Setaria viridis, 504 h, dosage 80 g/ha): 100%
- pest or weed control at 80 g/ha ([10]; Veronica persica, 504 h, dosage 80 g/ha): 80%
- pest or weed control at 20 g/ha ([11]; Viola tricolor, 504 h, dosage 20 g/ha): 90%
- pest or weed control at 80 g/ha ([11]; Viola tricolor, 504 h, dosage 80 g/ha): 100%
- pest or weed control at 20 g/ha ([12]; Digitaria sanguinalis, 504 h, dosage 20 g/ha): 90%
- pest or weed control at 80 g/ha ([12]; Digitaria sanguinalis, 504 h, dosage 80 g/ha): 100%
- pest or weed control at 20 g/ha ([13]; Abutilon theophrasti, 504 h, dosage 20 g/ha): 100%
- pest or weed control at 20 g/ha ([14]; Alopecurus myosuroides, 504 h): 90%
- pest or weed control at 20 g/ha ([15]; Echinochloa crus-galli, 504 h): 80%
- pest or weed control at 5 g/ha ([16]; Tripleurospermum inodorum, 504 h, dosage 5 g/ha): 80%
- pest or weed control at 20 g/ha [16, 23]: 90%
- pest or weed control at 20 g/ha ([17]; Setaria viridis, 504 h): 100%
- pest or weed control at 20 g/ha ([18]; Veronica persica, 504 h): 80%
- pest or weed control at 20 g/ha ([19]; Digitaria sanguinalis, 504 h, 20 g/ha): 90%

SMILES: CCn1nnnc1NC(=O)c1ccc(C(F)F)c(C(=O)NC(C)C2CC2)c1C (stereo not drawn) [Example 2-339]
- Pre-emergence action against ABUTH (herbicidal activity) [1, 24]: 100%
- Pre-emergence action against ABUTH (herbicidal activity in percent) ([1]; dosage 20 g/ha, scored visually after 3 weeks vs untreated controls, 100% = plants have died, 0% = like control plants): 100%
- Pre-emergence action against ALOMY (herbicidal activity) [2, 24]: 90%
- Pre-emergence action against AMARE in % ([3]; 20 g/ha, scored visually after 3 weeks vs untreated controls, 100% = plants have died, 0% = like control plants): 100%
- Pre-emergence action against AMARE in % [3, 24]: 100%
- Pre-emergence action against AVEFA in % ([4]; 80 g/ha): 80%
- Pre-emergence action against ECHCG in % [20]: 100%
- Pre-emergence action against LOLRI in % [5]: 80%
- Pre-emergence action against MATIN in % ([6]; dosage 20 g/ha): 100%
- Pre-emergence action against MATIN in % ([6]; dosage 80 g/ha): 100%
- Pre-emergence action against PHBPU in % ([7]; dosage 80 g/ha): 80%
- Pre-emergence action against POLCO in % [8]: 80%
- Pre-emergence action against SETVI in % ([9]; dosage 80 g/ha): 100%
- Pre-emergence action against VERPE in % ([10]; dosage 20 g/ha): 80%
- Pre-emergence action against VERPE in % ([10]; dosage 80 g/ha): 100%
- Pre-emergence action against VIOTR in % ([11]; dosage 20 g/ha): 100%
- Pre-emergence action against VIOTR in % ([11]; dosage 80 g/ha): 100%
- Pre-emergence action against DIGSA in % ([12]; dosage 20 g/ha): 100%
- Pre-emergence action against DIGSA in % ([12]; dosage 80 g/ha): 100%
- Post-emergence action against ABUTH in % ([13]; dosage 5 g/ha): 80%
- Post-emergence action against ABUTH in % ([13]; dosage 20 g/ha): 80%
- Post-emergence action against ALOMY in % [14]: 80%
- Post-emergence action at 20 g/ha against AMARE in % [21]: 90%
- Post-emergence action against ECHCG in % [15]: 90%
- Post-emergence action against MATIN in % ([16]; dosage 20 g/ha): 80%
- Post-emergence action against PHBPU in % ([22]; dosage 5 g/ha): 90%
- Post-emergence action against PHBPU in % ([22]; dosage 20 g/ha): 90%
- Post-emergence action against SETVI in % [17]: 100%
- Post-emergence action against VERPE in % [18]: 80%
- Post-emergence action against DIGSA in % ([19]; 5 g/ha): 80%
- Post-emergence action against DIGSA ([19]; 20 g/ha): 90%
